From patent publication US12605382B2, “Pharmaceutical composition for preventing, alleviating, or treating cancer containing 2,6-dichloro-4-(4-(4-hydroxycyclohexylamino)-7H- pyrrolo[2,3-d]pyrimidin-5-yl)phenol as active ingredient” (JBKLAB CO., LTD., priority 2021, dated 2026)

How the values were obtained:
MDA-MB-231 = test: Cell viability assay (WST-8), TNBC cell line; format: cell-based, human; conditions: dose dependently
Protocol: An experiment was performed to confirm the growth inhibitory effect of the compound of Example 1, the active ingredient of the pharmaceutical composition of the present invention, on breast cancer cell lines through cell viability assay.
Specifically, the cell viability assay was performed as follows. BT20, a human-derived breast cancer cell line, and MDA-MB-231, a TNBC cell line, were each seeded in 96-well plates at the density of 5×10^3 cells/well and cultured for 24 hours. Then, I-bet 762 and the compound of Example 1 were treated thereto at different concentrations and cultured for 48 hours. At the end of the culture, 100 μl of WST-8 solution was added to each well of the plate, and the absorbance was measured with a microplate reader using a 450 nm optical filter to measure the formazan produced by the reducing factors in living cells.
(§1) FIGS. 4A-4C show the cell viability of MDA-MB-231, MDA-MB-453, and BT-20 after 24 hours of treatment with the compound of Example 1. As shown in FIGS. 4A-4C, it was confirmed that the cell viability was suppressed not only in general breast cancer cell lines, but also in TNBC cell lines dose dependently.

MDA-MB-453 = test: Cell viability, breast cancer cell line; format: cell-based; conditions: MDA-MB-453, 24 hours, dose dependently
Protocol: as §1

breast cancer cell line = test: Formation of mammospheres in a breast cancer cell line; format: cell-based
[1] = system: breast cancer cells (MBA-MB-231); test: Xenograft tumor growth inhibition, TNBC cells in nude mice; format: in vivo; conditions: xenograft Balb/c nude mice, tumor size measured for 3 weeks
Protocol: An experiment was performed to confirm the tumor inhibition of the compound of Example 1, the active ingredient of the pharmaceutical composition of the present invention, on a xenograft tumor sample of breast cancer cells (MBA-MB-231), a human-derived TNBC cell line.
Specifically, to confirm the […] inhibitory effect of the compound of Example 1, the active ingredient of the pharmaceutical composition of the present invention, on breast cancer cell viability, an experiment was performed using 80 female 5-week-old xenograft Balb/c nude mice, which were approximately 8 weeks old at the start of administration.
The experimental xenograft Balb/c nude mice lacks T cells, the immune cells, were selected as an animal model suitable for transplanting human cancer cells. At the time of administration, animals within ±20% of the total average body weight were selected, and tumor growth was checked twice a week on the surface, and the size of the tumor was measured with a vernier caliper for 3 weeks.

[2] = system: tumor tissues (MDA-MB-231); test: H&E staining of tumor tissue, cell necrosis areas; format: in vivo, BALB/c-nude mice; conditions: T4, T5 and T6 groups
Protocol: An experiment was performed to confirm the tumor necrosis effect of the compound of Example 1, the active ingredient of the pharmaceutical composition of the present invention, by measuring the number of apoptotic bodies in tumors and H&E staining of the tumor tissues in BALB/c-nude mice injected with cancer cell lines.
Then, the sections were stained with hematoxylin and eosin, and cell necrosis areas were observed.

Hep3B = test: WST-8 cell viability assay, hepatocellular carcinoma cell line; format: cell-based
Protocol: (§2) Specifically, the WST-8 assay to check the cell viability of HepG2 and Hep3B, which are hepatocellular carcinoma cell lines shown in FIGS. 7A-7C and 8A-8C, was performed as follows. HepG2 and Hep3B were each seeded in 96-well plates at the density of 5×10^3 cells/well and cultured for 24 hours. Then, Sorafenib and OPT-0139 were diluted stepwise at a twofold concentration and then treated to the plates at different concentrations, followed by culture for 24, 48, and 72 hours. […] of WST-8 solution was added to each well of the plate, and the absorbance was measured with a microplate reader using a 450 nm optical filter to measure the formazan produced by the reducing factors in living cells.
(§3) Therefore, the number of living cells could be measured by measuring absorbance.

HepG2 = test: as above; format: cell-based
Protocol: as §2, §3

A549 = test: Cytotoxicity on cancer cell lines; format: cell-based; conditions: A549, dose dependently
Protocol: (§4) The cytotoxicity of the compound of Example 1 against various cancer cell lines was evaluated through a process similar to the evaluation of liver cancer cell line inhibition described above. Etoposide, sold as an anticancer agent, was used as a control group drug.

HCT15 = test: Cytotoxicity on cancer cell lines; format: cell-based; conditions: HCT15, dose dependently
Protocol: as §4

SK-MEL-2 = test: Cytotoxicity on cancer cell lines; format: cell-based; conditions: SK-MEL-2, dose dependently
Protocol: as §4

SK-OV-3 = test: Cytotoxicity on cancer cell lines; format: cell-based; conditions: SK-OV-3, dose dependently
Protocol: as §4

[3] = system: 4T1 murine triple negative breast cancer cells; test: Tumor size in triple-negative breast cancer allograft mouse model; format: in vivo, BALB/c mice; conditions: 10 mg/kg intravenously
Protocol: (§5) 4T1 murine triple negative breast cancer cells (6×10^5 cells) were injected into the hind limbs of 6-week-old immune-competent BALB/c mice. Seven days after injection, after confirming consistent tumor growth, 10 mice from each group were selected and used in subsequent experiments.
(§6) The experimental groups consisted of a control group (no treatment), a radiotherapy group, a group treated with the compound of Example 1, and a group treated with a combination of the compound of Example 1 and radiotherapy. Each treatment was carried out for 31 days after tumor implantation.
(§7) Radiation treatment was performed using electron beams, and a total of 24 Gy was irradiated three times, once every two days for one week (Days 10, 12, and 14) (8 Gy×3). The compound of Example 1 was administered intravenously at a dose of 10 mg/kg once every 2 or 3 days (Days 10, 12, 14, 17, 19, and 21) for a total of 6 times over 2 weeks. On the days when radiation therapy and drug administration were conducted simultaneously, the compound of Example 1 was administered after confirming that the mice had recovered from anesthesia 4 hours after radiation therapy.
On each treatment day, the length and width of the tumor were measured using a vernier caliper, and then the tumor volume (mm^3) was calculated using mathematical formula 1 below. Volume (mm^3)=length (mm)×{width (mm)}^2×0.5 [Mathematical Formula 1]

[4] = system: 4T1 murine triple negative breast cancer cells; test: Lung metastasis in triple-negative breast cancer allograft mouse model; format: in vivo, BALB/c mice; conditions: 31st day
Protocol: as §5, §6, §7
Mice were prepared in the same manner as in Example 8, and the lungs of the mice were removed on the 31st day after tumor injection, and the results of observing lung metastasis are shown in FIG. 13.

Oc1c(Cl)cc(-c2c[nH]c3ncnc(N[C@H]4CC[C@H](O)CC4)c23)cc1Cl [Example 1, (trans)-2,6-dichloro-4-(4-(4-hydroxycyclohexylamino)-7H-pyrrolo[2,3-d]pyrimidin-5-yl)phenol]
cell viability (MDA-MB-231; MDA-MB-231, 24 hours): suppressed
cell viability (MDA-MB-231; MDA-MB-231, 48 hours): inhibited the cell viability
cell viability (MDA-MB-453): suppressed
formation of mammospheres (breast cancer cell line): inhibits
tumor growth [1]: significantly inhibit the tumor growth
areas of tissue necrosis compared to NC group (H&E) [2]: more areas of tissue necrosis
effect on cell viability compared to Sorafenib (Hep3B): remarkable effect compared to Sorafenib
cell viability (Hep3B; 24, 48 and 72 hours): decreased the cell viability dose and time dependently
effect on cell viability compared to Sorafenib (HepG2): remarkable effect compared to Sorafenib
cell viability (HepG2; 24, 48 and 72 hours): decreased the cell viability dose and time dependently
toxicity to cancer cell line (A549): excellent toxicity
toxicity to cancer cell line (HCT15): excellent toxicity
toxicity to cancer cell line (SK-MEL-2): excellent toxicity
toxicity to cancer cell line (SK-OV-3): excellent toxicity
tumor growth compared to control group ([3]; alone, 6 times over 2 weeks, observed 31 days): significantly delayed the tumor growth
tumor growth compared to each administration alone ([3]; combined with radiation (8 Gy×3), 6 times): superior inhibitory effect on the tumor growth
lung metastasis compared to control group ([4]; alone, 10 mg/kg intravenously): significantly reduced metastasis
lung metastases compared to each administration alone ([4]; combined with radiation (8 Gy×3)): significantly (P<0.05) reduced lung metastases
